Experimental data from publication PMC11809512, “Looking for approved-medicines to be repositioned as anti-Trypanosoma cruzi agents. Identification of new chemotypes with good individual- or in combination-biological behaviours” (Memórias do Instituto Oswaldo Cruz, 2025).
Where two headings read alike, the source gives them in different places.

Key:
epimastigote T. cruzi = assay: Anti-epimastigote activity in modified milieu (excess Ca2+, glutamate or N-acetyl-L-cysteine, 1 mM); type: cell-based; conditions: Trypanosoma cruzi; for inhibition at 25 µM: read-out: Percentage of growth inhibition at 25 µM
Procedure: Three controls of untreated parasites and containing excess of calcium (II), glutamate or N-acetyl-L-cysteine (1 mM) were included. All treated and untreated wells contain no more than 0.4% of DMSO. Controls were used to calculate the relative proliferation in the treatment wells. Assays were performed in triplicate for all cases.

[1] = tested on: epimastigotes of T. cruzi (Tulahuen 2 strain, DTU Tc VI); assay: Screening / IC50 against T. cruzi epimastigotes (growth, absorbance 610 nm, 5 days); type: cell-based, Trypanosoma cruzi; conditions: for SIepi: SIepi = IC50,J774.1A/IC50,epi; for IC50: Trypanosoma cruzi, 120 h, read-out: IC50,epi; for anti-epimastigote activity in the initial screening (in words): 25 µM or 100 µg/mL, cut-off more than 65% inhibition
Procedure: (§1) Screening - Entities, dissolved in dimethylsulfoxide (DMSO, Sigma) before use and then diluted in a culture milieu, were firstly tested against epimastigotes of T. cruzi [Tulahuen 2 strain, discrete typing unit (DTU) Tc VI] as previously described.[14] ^, [15] […] The system was incubated at 28 °C for five days and to assess cell proliferation, cell density was monitored at 610 nm at time 0 (Ap0) and five days post incubation (Ap). All measures were normalised to the control population at day 0 (Ac0) and at day 5 (Ac5). Control parasites were incubated with 0.4% DMSO, corresponding to the highest DMSO concentration of the well. The percentage of parasite inhibition was calculated as: […]. This assay was independently performed three times. […] Secondly,[16] Vero (ATCC® CCL-81™) cells were infected with T. cruzi metacyclic trypomastigotes from 15 days old Dm28 clone (DTU Tc I) epimastigote cultures. Subsequently, the trypomastigotes harvested from this culture were used to infect further Vero cell cultures at a multiplicity of infection of 10. These trypomastigote-infected Vero cell cultures were incubated at 37 °C in humidified air and 5% CO2 for five to seven days. After this time, cellular trypomastigotes were collected from the supernatant by centrifugation at 3,000 × g for 10 min. The trypomastigote-containing pellets were resuspended in RPMI media supplemented with 5% foetal bovine serum (FBS) and penicillin/streptomycin at a final density of 1 × 10^8 parasites/mL. For viability assays, 1 × 10^7 trypomastigotes were seeded in black 96 well plates in RPMI and incubated with increasing concentrations of the entities under study for 24 h. Viability was analysed using resazurin, which is reduced to highly fluorescent resorufin. 50 μL of resazurin solution (2 mg/mL in RPMI) were added to each well and incubated for 4 h at 37 °C. Fluorescence (excitation 530 nm / emission 590 nm) was measured in a Thermo Scientific Varioskan® Flash Multimode plate spectrofluorimeter instrument. Untreated parasites were used as negative controls (100% of viability). […] Thirdly, for infection persistence analysis,[16] trypomatigotes Vero cells (at a multiplicity of infection of 10) growing in RPMI were trypsinised and replated in 24-wll plates (2-3 × 10^5 cells/well). […] After 24 h of incubation, cells were washed with phosphate-buffered saline (PBS), fixed with 4% paraformaldehyde, and stained with DAPI. Infected cells and amastigotes per cell were counted from randomly selected fields (400 cells per conditions). Two independent infections with trypomastigotes pre-treated with entities by two independent technicians were analysed. The percentage of uninfected Vero cells over total cells, as well as the percentage of decrease in the number of amastigotes per infected cell, was counted for each studied compound concentration tested and normalised against control untreated parasites.

J774.1A macrophages = assay: Cytotoxicity on macrophages (MTT, 48 h); type: cell-based; conditions: Macrophage, read-out: IC50,J774.1A
Procedure: Cytotoxicity - J774.1A macrophages (ATCC® TIB67™) were grown in DMEM milieu supplemented with 10% […] FBS, 1% L-glutamine, 1% streptomycin, and 100 units/mL penicillin. Cell viability was assessed using the MTT protocol. […] Cells were grown in 96-well plates (5 × 10^4 cells/well) for 24 h. Cultures were carried out at 37 °C in a humidified atmosphere with 5% CO2 and incubated with the compounds at different concentrations for 48 h. After incubation, the milieu was removed, and the cells were treated with 100 μL of 0.4 mg/mL MTT for 4 h at 37 °C. Subsequently, 100 μL of DMSO was added to the mixture. The solubilised formazan product was quantified through absorbance measurements at 570 nm. The absorbance values were transformed to the percentage of cytotoxicity compared to the negative controls.

[2] = tested on: amastigote forms of T. cruzi in Vero cells (Dm28 clone, DTU Tc I); type: cell-based; conditions: 24 h
Procedure: as §1
The number of amastigotes per cell as well as the number of infected cells was then counted.

[3] = tested on: Trypanosoma cruzi trypomastigotes (Dm28c); assay: Trypomastigote viability (resazurin, 24 h); type: cell-based; conditions: fixed concentrations, Fig. 1
Procedure: Screening - Entities, dissolved in dimethylsulfoxide (DMSO, Sigma) before use and then diluted in a culture milieu, were firstly tested against epimastigotes of T. cruzi [Tulahuen 2 strain, discrete typing unit (DTU) Tc VI] as previously described.[14] ^, [15] […] The system was incubated at 28 °C for five days and to assess cell proliferation, cell density was monitored at 610 nm at time 0 (Ap0) and five days post incubation (Ap). All measures were normalised to the control population at day 0 (Ac0) and at day 5 (Ac5). Control parasites were incubated with 0.4% DMSO, corresponding to the highest DMSO concentration of the well. The percentage of parasite inhibition was calculated as: (Ap - Ap0)/(Ac5 - Ac0) × 100. This assay was independently performed three times. […] Secondly,[16] Vero (ATCC® CCL-81™) cells were infected with T. cruzi metacyclic trypomastigotes from 15 days old Dm28 clone (DTU Tc I) epimastigote cultures. […] Viability was analysed using resazurin, which is reduced to highly fluorescent resorufin. […] Fluorescence (excitation 530 nm / emission 590 nm) was measured in a Thermo Scientific Varioskan® Flash Multimode plate spectrofluorimeter instrument. […] Infected cells and amastigotes per cell were counted from randomly selected fields (400 cells per conditions). Two independent infections with trypomastigotes pre-treated with entities by two independent technicians were analysed. […]

[4] = Ca2+ 1 mM, read-out: IC50,epi with excess of Ca2+
[5] = epimastigotes Tulahuen 2, 5 days

`CCOC(=O)C1=C(COCCN)NC(C)=C(C(=O)OC)C1c1ccccc1Cl` (centres unmarked) [Amlod, Amlodipine] showed an IC50 (epimastigote T. cruzi; [4]) of roughly 25 µM, an SIepi [1] of 7.00 and an IC50 [1, 5] of 13.7 µM. The IC50 (J774.1A macrophages; macrophages, MTT) was 95.7 µM.

`O=C(Cn1ccnc1[N+](=O)[O-])NCc1ccccc1` [Bnz, Benznidazole] was tested, and the SIepi [1] was 50.2, the IC50 [1, 5] was 4.93 µM and the IC50 (J774.1A macrophages; macrophages, MTT) was 247 µM.

In the case of `C[C@H]1c2cccc(O)c2C(=O)C2=C(O)[C@]3(O)C(=O)C(C(N)=O)=C(O)[C@@H](N(C)C)[C@@H]3[C@@H](O)[C@@H]21` [Dox, Doxycycline], the SIepi [1] is reported as 1.24, the IC50 [1, 5] is reported as 19.1 µM and the IC50 (J774.1A macrophages; macrophages, MTT) is reported as 23.8 µM.

`C#Cc1cccc(Nc2ncnc3cc(OCCOC)c(OCCOC)cc23)c1` [Erlo, Erlotinib] was tested, and the “anti-epimastigote activity in the initial screening (in words)” value [1] was “did not display anti-T. cruzi activities in the assayed conditions”.

With `NCC1(CC(=O)O)CCCCC1` [Gaba, Gabapentin] the IC50 (epimastigote T. cruzi; read-out: IC50,epi with excess of Ca2+) was greater than 25 µM, the IC50 (epimastigote T. cruzi; read-out: IC50,epi with excess of glutamate) was greater than 25 µM and the IC50 ([1]; TULAHUEN) was 6.01 µM. The IC50 (J774.1A macrophages) was 19.1 µM.

Molecule `CC(=O)N1CCN(c2ccc(OCC3COC(Cn4ccnc4)(c4ccc(Cl)cc4Cl)O3)cc2)CC1` (centres unmarked) [Ket, Ketoconazole] has an SIepi [1] of 2.60, an IC50 [1, 5] of 5.13 µM and an IC50 (J774.1A macrophages; macrophages, MTT) of 13.3 µM.

With `CS(=O)(=O)CCNCc1ccc(-c2ccc3ncnc(Nc4ccc(OCc5cccc(F)c5)c(Cl)c4)c3c2)o1` [Lapa, Lapatinib] the IC50 [1, 5] was 16.6 µM and the IC50 (J774.1A macrophages; macrophages, MTT) was 7.6 µM.

In the case of `CCOC(=O)N1CCC(=C2c3ccc(Cl)cc3CCc3cccnc32)CC1` [Lorat, Loratadine], the SIepi [1] is reported as 8.21, the IC50 [1, 5] is reported as 0.95 µM and the IC50 (J774.1A macrophages; macrophages, MTT) is reported as 7.8 µM.

Molecule `NC(=O)NN=C1C=Cc2ccccc2C1=O` [Naft, Naftazone] has an IC50 (epimastigote T. cruzi; [4]) of 2.8 µM, an IC50 (epimastigote T. cruzi; NAC 1 mM, read-out: IC50,epi with excess of N-acetyl-L-cysteine (NAC)) of 1.9 µM and an IC50 (epimastigote T. cruzi; glutamate 1 mM, read-out: IC50,epi with excess of glutamate) of 13.5 µM. For the same molecule, the “%dnac: percentage of decrease in the number of amastigotes per treated Vero cell respect to control” value ([2]; 6.25 µM) was 0%, the “%ucell: percentage of uninfected Vero cells with amastigotes respect to untreated parasites” value (“%ucell: percentage” for short) ([2]; 6.25 µM) was 0% and the “%dnac: percentage of decrease in the number of amastigotes per treated Vero cell respect to control” value ([2]; 12.5 µM) was 0%. For the same molecule, the “%ucell: percentage” value ([2]; 12.5 µM) was 0%, the “%dnac: percentage of decrease in the number of amastigotes per treated Vero cell respect to control” value ([2]; 25 µM) was 24% and the “%ucell: percentage” value ([2]; 25 µM) was 15%. The SIepi [1] was 135.7, the IC50 [1, 5] was 0.75 µM and the “anti-trypomastigote activity (in words)” value [3] was “excellent cytotoxic agent for this form of the parasite”. It also gave an IC50 (J774.1A macrophages; macrophages, MTT) of 102 µM.

`CC1CS(=O)(=O)CCN1/N=C/c1ccc([N+](=O)[O-])o1` (centres unmarked) [Nfx, nifurtimox] showed an inhibition at 25 µM (epimastigote T. cruzi; with Ca2+ (1 mM)) of 61%, an inhibition at 25 µM (epimastigote T. cruzi; with Glu (1 mM)) of 55% and an inhibition at 25 µM (epimastigote T. cruzi; with NAC (1 mM)) of 20%. It also gave an inhibition at 25 µM (epimastigote T. cruzi; without Ca2+) of 70%, an inhibition at 25 µM (epimastigote T. cruzi; without Glu) of 70% and an inhibition at 25 µM (epimastigote T. cruzi; without NAC) of 74%.

`O=C1CN(/N=C/c2ccc([N+](=O)[O-])o2)C(=O)N1` [Nitrof, Nitrofurantoin] gave an SIepi [1] of 4.59, an IC50 [1, 5] of 13.3 µM and an IC50 (J774.1A macrophages; macrophages, MTT) of 61.1 µM.

With `CCC(C)(C)C(=O)O[C@H]1C[C@@H](C)C=C2C=C[C@H](C)[C@H](CC[C@@H]3C[C@@H](O)CC(=O)O3)[C@H]21` [Simv, Simvastatin] the SIepi [1] was 0.88, the IC50 [1, 5] was 7.36 µM and the IC50 (J774.1A macrophages; macrophages, MTT) was 6.5 µM.

With `CCN(CC)CCNC(=O)c1c(C)[nH]c(/C=C2\C(=O)Nc3ccc(F)cc32)c1C` [Sun, Sunitinib] the “anti-epimastigote activity in the initial screening (in words)” value [1] was “did not display anti-T. cruzi activities in the assayed conditions”.

In the case of `CN(C/C=C/C#CC(C)(C)C)Cc1cccc2ccccc12` [Terb, Terbinafine], the “%dnac: percentage of decrease in the number of amastigotes per treated Vero cell respect to control” value ([2]; 6.25 µM) is reported as 20%, the “%ucell: percentage” value ([2]; 6.25 µM) is reported as 4% and the “%dnac: percentage of decrease in the number of amastigotes per treated Vero cell respect to control” value ([2]; 12.5 µM) is reported as 23%. For the same molecule, the “%ucell: percentage” value ([2]; 12.5 µM) was 15%, the SIepi [1] was 3.05 and the IC50 [1, 5] was 21.4 µM. For the same molecule, the IC50 (J774.1A macrophages; macrophages, MTT) was 65 µM.
